Experimental data taken from US5021413A (priority 1988, dated 1991).
pIC50: −log10 of the molar value. Structures can show the parent of a compound that is named as a salt.

Experiments:
μ-receptors = target: T1, μ-receptors (Cavia porcellus, UniProt A0ACM8Q262); set-up: species or system guinea pig (male Hartley); details: read-out: Binding to opioid receptors, μ (IC50)
T1 construct: [3H]DAGO (DAMGO) displacement

κ-receptors = target: T2, κ-receptors (Cavia porcellus, UniProt P41144); assay: biochemical; assay type: binding, guinea pig (male Hartley)
T2 construct: A raw preparation from brain membrane was made; tissue Japan SLC; host or cells: guinea pig whole brain without cerebellum, crude membranes

[1] = system: p-phenylquinone-induced writhing in mice; assay: animal or person; assay type: in vivo, mouse (male ddY mice); details: sc; for ED50: Mus musculus, read-out: Analgesic effect, phenylquinone-induced writhing, ED50; for Analgesic effect, phenylquinone-induced writhing at 320 μg/kg (analgesic-effective animals/all animals): mouse, in vivo

T2 sequence (P41144 whole entry): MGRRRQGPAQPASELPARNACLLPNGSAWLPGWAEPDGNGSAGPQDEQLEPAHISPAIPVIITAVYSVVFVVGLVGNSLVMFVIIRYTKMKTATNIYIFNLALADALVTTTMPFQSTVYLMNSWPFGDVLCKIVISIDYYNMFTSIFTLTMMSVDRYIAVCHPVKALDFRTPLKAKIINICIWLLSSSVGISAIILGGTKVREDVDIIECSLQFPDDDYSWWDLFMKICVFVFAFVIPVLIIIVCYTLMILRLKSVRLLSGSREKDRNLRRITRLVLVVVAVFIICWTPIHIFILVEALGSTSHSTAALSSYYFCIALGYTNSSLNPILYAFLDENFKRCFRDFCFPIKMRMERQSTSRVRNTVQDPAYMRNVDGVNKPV
T1 sequence (A0ACM8Q262 1-400): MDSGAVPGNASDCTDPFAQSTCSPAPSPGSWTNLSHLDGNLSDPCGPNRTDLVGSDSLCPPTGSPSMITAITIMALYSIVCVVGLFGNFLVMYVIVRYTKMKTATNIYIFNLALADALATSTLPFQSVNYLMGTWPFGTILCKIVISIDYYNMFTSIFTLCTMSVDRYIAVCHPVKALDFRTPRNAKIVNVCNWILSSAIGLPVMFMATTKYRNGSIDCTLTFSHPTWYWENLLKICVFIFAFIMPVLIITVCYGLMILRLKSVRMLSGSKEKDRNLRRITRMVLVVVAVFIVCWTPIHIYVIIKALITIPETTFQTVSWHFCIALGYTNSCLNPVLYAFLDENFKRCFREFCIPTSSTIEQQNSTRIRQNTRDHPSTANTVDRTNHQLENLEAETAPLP

`O=C1C[C@H](C(=O)N2CCCC[C@H]2CN2CCCC2)c2cc(Cl)c(Cl)cc21` (relative stereo) [Example 4-D1, 1-[(1S*)-5,6-dichloro-3-oxoindan-1-carbonyl)-(2S*)-2-pyrrolidin-1-ylmethyl)piperidine] gave a pIC50 (μ-receptors) of 6.27, a pIC50 (κ-receptors) of 8.85 and an ED50 [1] of 3.43 µg/kg.
For `O=C1C[C@@H](C(=O)N2CCCC[C@H]2CN2CCCC2)c2cc(Cl)c(Cl)cc21` (relative stereo) [Example 4-D2, 1-[(1R*)-5,6-dichloro-3-oxoindan-1-carbonyl](2S*)-2-(pyrrolidin-1-ylmethyl)piperidine], the pIC50 (κ-receptors) was 6.44 and the ED50 [1] was 270 µg/kg.
`O=C([C@H]1CCc2cc(Cl)c(Cl)cc21)N1CCSC[C@@H]1CN1CCCC1` (relative stereo) [Example 41-D1, 4-[(1S*)-5,6-dichloroindan-1-carbonyl]-(3S*)-3-(pyrrolidin-1-ylmethyl)thiomorpholine] gave a pIC50 (μ-receptors) of 6.16, a pIC50 (κ-receptors) of 9.17 and an ED50 [1] of 1.3 µg/kg.
Compound `O=C1CC(C(=O)N2CCCCC2CN2CCCC2)c2cc(Cl)c(Cl)cc21` (stereo not shown) [Example 1, 1-(5,6-dichloro-3-oxoindan-1-carbonyl)-2-(pyrrolidin-1-yl-methyl)piperidinehydrochloride] has a pIC50 (μ-receptors) of 5.97, a pIC50 (κ-receptors) of 8.76 and an ED50 [1] of 6.2 µg/kg.
`O=C1C[C@H](C(=O)N2CCCC[C@H]2CN2CCCC2)c2cc(Cl)c(Cl)cc21` [Example 2-E1, 1-[(1S)-5,6-dichloro-3-oxoindan-1-carbonyl]-(2S)-2-(pyrrolidin-1-ylmethyl)piperidine] showed a pIC50 (μ-receptors) of 6.63, a pIC50 (κ-receptors) of 9.05 and an ED50 [1] of 1.73 µg/kg.
`O=C1C[C@@H](C(=O)N2CCCC[C@H]2CN2CCCC2)c2cc(Cl)c(Cl)cc21` [Example 2-E2, 1-[(1R)-5,6-dichloro-3-oxoindan-1-carbonyl]-(2S)-2-(pyrrolidin-1-ylmethyl)piperidine] gave a pIC50 (κ-receptors) of 6.59 and an ED50 [1] of 320 µg/kg.
In the case of `O=C(Cc1ccc(Cl)c(Cl)c1)N1CCSCC1CN1CCCC1` (stereo not shown) [Example 17, 4-(3,4-dichlorophenylacetyl)-3-(pyrrolidin-1-ylmethyl)thiomorpholine hydrochloride], the pIC50 (κ-receptors) was 8.96 and the “Analgesic effect, phenylquinone-induced writhing at 320 μg/kg (analgesic-effective animals/all animals)” value [1] was 5/5.
Work on `O=C1CC(C(=O)N2CCSCC2CN2CCCC2)c2cc(Cl)c(Cl)cc21` (stereo not shown) [Example 36, 4-(5,6-dichloro-3-oxoindan-1-carbonyl)-3-(pyrrolidin-1-ylmethyl)thiomorpholine hydrochloride] yielded a pIC50 (μ-receptors) of 5.95, a pIC50 (κ-receptors) of 8.62 and an ED50 [1] of 3.4 µg/kg.
In the case of `CN1CC[C@]23c4c5ccc(O)c4O[C@H]2[C@@H](O)C=C[C@H]3[C@H]1C5.Cl` [Morphine HCl, reference compound], the “Analgesic effect, phenylquinone-induced writhing at 320 μg/kg (analgesic-effective animals/all animals)” value [1] was 2/5.
